Source: ChEMBL document CHEMBL3885861, “Open TG-GATES”

Species on record: Rattus norvegicus
Assay: Open TG-GATES - Regimen: Daily Repeat
Type: toxicity, organism-based, Sprague-Dawley
Set-up: regimen Daily Repeat, gender Male, age 6 weeks
Conditions: in vivo, po, route gavage; for gamma-GTP / ALP / ALT / AST / BUN / CRE / Ca / DBIL / GLC / IP / K / LDH / Na / PL / RALB / TBIL / TC / TG / TP: tissue Plasma; for APTT / Bas / Eos / Fbg / Hb / Ht / Lym / MCH / MCHC / MCV / Mono / Neu / PT / Plat / RBC / Ret / WBC: tissue Blood; for KIDNEY_L / KIDNEY_R / KIDNEY_TOTAL: tissue Kidney; for LIVER: tissue Liver
[1] = 10 mg/kg, 72 h, dose level Low, time 3 day
[2] = 10 mg/kg, […], dose level Low, time 7 day
[3] = 10 mg/kg, […], dose level Low, time 14 day
[4] = 10 mg/kg, […], dose level Low, time 28 day

`CSc1ccc2c(c1)N(CCC1CCCCN1C)c1ccccc1S2` (centres undefined) [THIORIDAZINE] gave a gamma-GTP (0 mg/kg, […], dose level Control, time 28 day) of 1.4 IU/L, a TERMINAL_BW [1] of 239 g and an APTT [1] of 16.3 s. For the same molecule, the Bas [1] was 0%, the Eos [1] was 1% and the Fbg [1] was 219.4 mg/dL. For the same molecule, the Hb [1] was 13.5 g/dL, the Ht [1] was 40.6% and the Lym [1] was 81%. For the same molecule, the MCH [1] was 21.2 pg, the MCHC [1] was 33.3% and the MCV [1] was 63.6 fL. The Mono [1] was 5.8%, the Neu [1] was 12.4% and the PT [1] was 11.9 s. For the same molecule, the Plat [1] was 107.3 x10_4/uL, the RBC [1] was 638.4 x10_4/ul and the Ret [1] was 8.8%. For the same molecule, the WBC [1] was 136.6 x10_2/uL, the KIDNEY_L [1] was 1.1 g and the KIDNEY_R [1] was 1.1 g. It also gave a KIDNEY_TOTAL [1] of 2.2 g, an LIVER [1] of 12.5 g and an ALP [1] of 797.8 IU/L. For the same molecule, the ALT [1] was 35.6 IU/L, the AST [1] was 62.2 IU/L and the BUN [1] was 17.2 mg/dL. It also gave a CRE [1] of 0.5 mg/dL, a Ca [1] of 11 mg/dL and a DBIL [1] of 0.042 mg/dL. For the same molecule, the GLC [1] was 193.2 mg/dL, the IP [1] was 9 mg/dL and the K [1] was 4.7 meq/L. The LDH [1] was 82 IU/L, the Na [1] was 138.2 meq/L and the PL [1] was 163 mg/dL. For the same molecule, the RALB [1] was 3.9 g/dL, the TBIL [1] was 0.3 mg/dL and the TC [1] was 81.8 mg/dL. It also gave a TG [1] of 137 mg/dL, a TP [1] of 5.9 g/dL and a gamma-GTP [1] of 1.6 IU/L. It also gave a TERMINAL_BW [2] of 268.9 g, a TERMINAL_BW [3] of 333.8 g and a TERMINAL_BW [4] of 403.9 g. It also gave an APTT [2] of 16.8 s, a Bas [2] of 0% and an Eos [2] of 0.8%. The Fbg [2] was 223 mg/dL, the Hb [2] was 13.9 g/dL and the Ht [2] was 41.4%. The Lym [2] was 79.2%, the MCH [2] was 20.6 pg and the MCHC [2] was 33.5%. It also gave an MCV [2] of 61.5 fL, a Mono [2] of 7% and a Neu [2] of 13.2%. For the same molecule, the PT [2] was 12.1 s, the Plat [2] was 118.8 x10_4/uL and the RBC [2] was 674.2 x10_4/ul. For the same molecule, the Ret [2] was 5.2%, the WBC [2] was 127.5 x10_2/uL and the APTT [3] was 17.3 s. For the same molecule, the Bas [3] was 0%, the Eos [3] was 0.8% and the Fbg [3] was 237.8 mg/dL. For the same molecule, the Hb [3] was 14.7 g/dL, the Ht [3] was 43.8% and the Lym [3] was 84.4%. It also gave an MCH [3] of 20.8 pg, an MCHC [3] of 33.6% and an MCV [3] of 62.1 fL. The Mono [3] was 5.8%, the Neu [3] was 9% and the PT [3] was 11.7 s. It also gave a Plat [3] of 115 x10_4/uL, an RBC [3] of 706.6 x10_4/ul and a Ret [3] of 4.2%. The WBC [3] was 167.8 x10_2/uL, the APTT [4] was 17.6 s and the Bas [4] was 0%. It also gave an Eos [4] of 1%, a Fbg [4] of 233 mg/dL and a Hb [4] of 15.4 g/dL. The Ht [4] was 45.5%, the Lym [4] was 83.6% and the MCH [4] was 19.8 pg. The MCHC [4] was 33.9%, the MCV [4] was 58.3 fL and the Mono [4] was 6.2%. The Neu [4] was 9.6%, the PT [4] was 12.1 s and the Plat [4] was 121.4 x10_4/uL. The RBC [4] was 780.6 x10_4/ul, the Ret [4] was 2.6% and the WBC [4] was 150 x10_2/uL. The KIDNEY_L [2] was 1.1 g, the KIDNEY_R [2] was 1.1 g and the KIDNEY_TOTAL [2] was 2.3 g. It also gave a KIDNEY_L [3] of 1.3 g, a KIDNEY_R [3] of 1.4 g and a KIDNEY_TOTAL [3] of 2.7 g. For the same molecule, the KIDNEY_L [4] was 1.5 g, the KIDNEY_R [4] was 1.5 g and the KIDNEY_TOTAL [4] was 3 g. The LIVER [2] was 13.2 g, the LIVER [3] was 15.4 g and the LIVER [4] was 17.2 g. For the same molecule, the ALP [2] was 792.4 IU/L, the ALT [2] was 34 IU/L and the AST [2] was 61 IU/L. For the same molecule, the BUN [2] was 18.4 mg/dL, the CRE [2] was 0.5 mg/dL and the Ca [2] was 11.1 mg/dL. It also gave a DBIL [2] of 0 mg/dL, a GLC [2] of 197.2 mg/dL and an IP [2] of 8.3 mg/dL. It also gave a K [2] of 4.8 meq/L, an LDH [2] of 84 IU/L and a Na [2] of 139.4 meq/L. The PL [2] was 172.8 mg/dL, the RALB [2] was 4 g/dL and the TBIL [2] was 0.3 mg/dL. For the same molecule, the TC [2] was 88.4 mg/dL, the TG [2] was 118.6 mg/dL and the TP [2] was 6 g/dL. For the same molecule, the gamma-GTP [2] was 1.2 IU/L, the ALP [3] was 779.6 IU/L and the ALT [3] was 33.6 IU/L. The AST [3] was 62.8 IU/L, the BUN [3] was 20.4 mg/dL and the CRE [3] was 0.6 mg/dL. The Ca [3] was 10.9 mg/dL, the DBIL [3] was 0.002 mg/dL and the GLC [3] was 178.6 mg/dL. The IP [3] was 7.8 mg/dL, the K [3] was 5.2 meq/L and the LDH [3] was 110.2 IU/L. For the same molecule, the Na [3] was 139.4 meq/L, the PL [3] was 167.8 mg/dL and the RALB [3] was 4.1 g/dL. It also gave a TBIL [3] of 0.3 mg/dL, a TC [3] of 81.2 mg/dL and a TG [3] of 158 mg/dL. For the same molecule, the TP [3] was 6.3 g/dL, the gamma-GTP [3] was 1.2 IU/L and the ALP [4] was 564 IU/L. For the same molecule, the ALT [4] was 32.4 IU/L, the AST [4] was 63.4 IU/L and the BUN [4] was 21.2 mg/dL. The CRE [4] was 0.6 mg/dL, the Ca [4] was 10.7 mg/dL and the DBIL [4] was 0 mg/dL. It also gave a GLC [4] of 180.8 mg/dL, an IP [4] of 7.3 mg/dL and a K [4] of 4.3 meq/L. It also gave an LDH [4] of 131.8 IU/L, a Na [4] of 140.4 meq/L and a PL [4] of 162.4 mg/dL. The RALB [4] was 4.2 g/dL, the TBIL [4] was 0.2 mg/dL and the TC [4] was 74 mg/dL. It also gave a TG [4] of 177.2 mg/dL and a TP [4] of 6.4 g/dL.
